Data on five compounds can be found in patent US10485868B2, “Tn vaccine composition and method for alleviating inflammation” (TAIPEI MEDICAL UNIVERSITY, priority 2017, dated 2019).

Experiment [1] relates to human gingival fibroblasts (HGFs). In words: Tn expression in HGFs, immunofluorescent staining with anti-Tn antibody. To be noted: for Tn levels in HGFs, responsiveness to purified cytokine: 0, 10, 30, 100 ng/ml for 24 hours; for Tn levels in HGFs: TNF-α 30 ng/ml. The experiment is classed as cell-based. The method, then: FIG. 6A. Immunohistochemical analysis of Tn antigen in inflammatory tissues (top) and normal tissues (bottom). Tn staining in atherosclerotic aorta (left; labeled Aorta), bronchitis tissue (middle; labeled Bronchi), and periodontitis tissue (right; labeled Gingiva). Brown color represents Tn antigen expression. FIG. 6B. HGFs were treated with conditioned media from U937 cells stimulated with LPS (0, 10, 30 and 100 ng/ml; 24 hours) for 24 hours and then stained with purified rabbit anti-Tn antibody (in red) and DAPI (in blue). FIG. 6C. U937 cells were treated with LPS (0, 10, 30 and 100 ng/ml) for 24 hours, the secretions of TNF-α were analyzed by ELISA. Original magnifications (100×). Scale bar, 50 μm. FIG. 6D. U937 cells were treated with LPS (0, 10, 30 and 100 ng/ml) for 24 hours, the secretions of IL-6 were analyzed by ELISA. Original magnifications (100×). Scale bar, 50 μm. FIG. 6E. U937 cells were treated with LPS (0, 10, 30 and 100 ng/ml) for 24 hours, the secretions of IL-1β were analyzed by ELISA. Original magnifications (100×). Scale bar, 50 μm.
FIGS. 7A and 7B show pro-inflammatory cytokines, TNF-α and IL-6, up-regulates Tn levels in HGFs. FIG. 7A. The effect of pro-inflammatory cytokines on Tn expression in HGFs. HGFs were treated with purified TNF-α, IL-6 and IL-1β at the concentration of 0, 10, 30, and 100 ng/ml for 24 hours and then stained with purified rabbit anti-Tn antibody (in red) and DAPI (in blue). Original magnification (100×); scale bar, 50 μm. FIG. 7B. Time course analysis of Tn expressions in HGFs after TNF-α treatment. HGFs were treated with purified TNF-α at the concentration of 30 ng/ml for 4, 8, 12, 24 and 48 hours and then stained with purified rabbit anti-Tn antibody (in red) and DAPI (in blue) (Magnifications 630×; scale bar, 50 μm). The experiments were repeated at least three times.
(§1) FIG. 9A. Effect of TNF-α and demethylation agents on the methylation level of COSMC gene in HGFs. The comparison of methylation changes is in the HGFs which were treated with or without TNF-α and demethylation agents. The UCSC genome browser illustrated the orientation and the first exon of COSMC (blue bar), GC percent (black scale bar), CpG islands (green bar) and the sequencing region of bisulfite pyrosequencing (COSMC_py02, black bar). […] FIG. 9B. HGFs were co-treated with purified TNF-α and different concentrations of 5-aza-dC (0, 1, 2 and 5 μM) for 24 hours and then immunofluorescent stained with rabbit anti-Tn antibody (in red) and DAPI (in blue). Magnification 630×; Scale bar, 50 μm.

In experiment [2] the test system is COSMC gene. In words: Bisulfite pyrosequencing of COSMC gene promoter methylation in HGFs. The experiment is classed as cell-based, human. How it is done: as §1
For experiment [3], the system named is NF-κB P65. In words: Immunohistochemistry of NF-κB in lung. The experiment is classed as in vivo, mice. The following applies: hyperoxia group immunized with carrier protein compared with control and Tn-treated hyperoxia groups. How it is done:
After a routine deparaffinization step, heat-induced epitope retrieval was performed by immersing the slides in 0.01 mol/L sodium citrate buffer (pH 6.0). To block the endogenous peroxidase activity and nonspecific antibody binding, sections were first preincubated for 1 hour at room temperature in 0.1 mol/L PBS containing 10% normal goat serum and 0.3% H2O2 before incubating for 20 hours at 4° C. with the rabbit polyclonal anti-NF-κB P65 (1:50 dilution; Abcam Inc., Cambridge, Mass., USA) as primary antibody. The sections were then treated for 1 hour at room temperature with biotinylated goat anti-rabbit IgG (1:200, Vector, Calif., USA). This was followed by reaction with the reagents from an ABC kit (Avidin-Biotin Complex, Vector, Calif., USA) according to the manufacturer's recommendations, and the reaction products were visualized by diaminobenzidine substrate kit (Vector, Calif., USA). All immunostained sections were viewed and photographed by Olympus BX 43.

The test system of experiment [4] is C57BL/6NCrlBltw mice. In words: Serum anti-Tn antibody titers by ELISA after immunization. Format: in vivo. The following applies: mice immunized subcutaneously with adjuvant, versus background before immunization. The method, then:
Five-week-old female C57BL/6NCrlBltw mice were subcutaneously immunized with Tn vaccine at a dose of 20 μg or carrier protein (10 μg of mFc(Cys42-Tn)Histag2) in the presence of adjuvant in 100 μl for four times at biweekly intervals and one additional immunization at one week later after the fourth immunization. Blood was withdrawn from facial vein for anti-Tn antibody titer measurement using enzyme-linked immunosorbent assay (ELISA) on days 0, 42, and 49. Four days after the last immunization, mice were exposed to room air (RA) or oxygen-enriched atmosphere (100% O2) for up to 96 hours. Oxygen exposures was carried out in a transparent 60×50×40-cm Plexiglas chamber into which oxygen was continuously delivered at 4 l/min and oxygen levels were monitored with a ProOx Model 110 monitor (NexBiOxy, Hsinchu, Taiwan) and humidity was checked daily and the value was 60-80%. We obtained four study groups as follows: carrier protein+RA (n=6), Tn vaccine+RA (n=6), carrier protein+O2 (n=6), and Tn vaccine+O2 (n=5). Mice were deeply anesthetized with an overdose of isoflurane after 96 hours O2 treatment. […] This washing procedure was repeated two more times for each animal, with the three washes being pooled, and the total volume recorded. […]
GST(Cys6-Tn) was coated on 96-well flat-bottomed plates (Falcon Labware, Lincoln Park, N.J., USA) at a concentration of 1.5 μg/ml. […] Absorbance was read at 410 nm.
(In an ELISA, binding on a coated surface is turned into a signal by an enzyme label.)

Experiment [5] concerns T-synthase. In words: qPCR of T-synthase mRNA in HGFs. Format: cell-based, human. The following applies: 100 ng/ml, 24 hours. The method, then: (§2) FIG. 8A. Effect of TNF-α and demethylation agents (5-aza-dC) on mRNA expression of COSMC and T-synthase in HGFs. qPCR was used to analyze COSMC and T-synthase mRNA expression in HGFs upon TNF-α and 5-aza-dC treatment. The mRNA expression of COSMC and T-synthase was normalized to GAPDH and statistically analyzed. (*: p<0.05 compared with TNF-α only) Calculations of relative gene expression (normalized to GAPDH reference gene) were performed according to the ΔΔCT method. Fidelity of the PCR reaction was determined by melting temperature analysis. FIG. 8B. Western blotting was used to analyze the protein levels of Cosmc and T-synthase upon 6 and 24 hours of TNF-α treatment. FIG. 8C. and FIG. 8D. HGFs were treated with purified TNF-α for 6 or 24 hours and then immunofluorescent stained with anti-Cosmc (in red) and anti-T-synthase antibodies (in green) and DAPI (in blue). Original magnification (100×); scale bar, 50 μm.
Background: Quantitative PCR measures a nucleic acid by following its amplification.

Experiment [6] concerns COSMC. In words: qPCR of COSMC mRNA in HGFs. Format: cell-based, human. The following applies: 100 ng/ml, 24 hours. The method, then:
as §2

Consider `Nc1ncn([C@H]2C[C@H](O)[C@@H](CO)O2)c(=O)n1` [5-aza-dC, reference compound], for which, in experiment [1] (HGFs co-treated with TNF-α and 0, 1, 2, 5 μM for 24 hours), the “TNF-α-induced Tn expression” value was “can be suppressed”. Moreover, the “TNF-α-induced COSMC gene hypermethylation” value in experiment [2] (HGFs treated with TNF-α and demethylation agent) is “can be suppressed”.

With “Fc fragment-7 repeats of Pro-Cys-Cys-Gly-Cys-Cys-Gly-Cys-Gly-Cys-N-succinimidyl-6-maleimidocaproate [carrier protein]”, in experiment [3], the “NFκB immunoreactivity in lung” value is “more intense NFκB immunoreactivity”. Besides, the “serum anti-Tn antibody titers” value in experiment [4] is “low serum Tn antibody titers”; in experiment [4] (listed as carrier polypeptide) it was “background serum anti-Tn antibody levels”.

Consider interleukin-1β [IL-1β], for which, in experiment [1], the “Tn levels in HGFs, responsiveness to purified cytokine” value (“Tn levels in HGFs, responsiveness” for short) is reported as “not responsive”.

interleukine-6 [IL-6]: the “Tn levels in HGFs, responsiveness” value in experiment [1] is reported as “moderately responsive”.

With tumor necrosis factor-α [TNF-α], in experiment [1], the “Tn levels in HGFs, responsiveness” value was “most responsive”. The “Tn levels in HGFs” value was “Gradual increase” in experiment [1] (8 to 12 hrs), “essentially unchanged” in experiment [1] (4 hrs), “gradually decreased” in experiment [1] (after 24 hours) and “markedly decreased” in experiment [1] (after 48 hours). The “T-synthase mRNA level in HGFs” value in experiment [5] was “did not significantly alter”. Moreover, in experiment [2] (TNF-α treatment of HGFs), the “methylation of four CpG sites in the promoter of the COSMC gene” value is listed as “significantly hypermethylated”. Further, the “COSMC mRNA in HGFs” value in experiment [6] is “significantly down-regulated”.
